Blank lines part the entries; values can stand above or below the compound they belong to.
Tests used:
[1] = system: carrageenan-induced monoarthritis in rat; assay: Monoarthritis induced by carrageenan, Paw Print setup (hindpaw weight distribution, "Walking pain"); assay type: in vivo; conditions: for hindpaw weight distribution (difference in percent weight-bearing between the two hind paws), mean ±SEM: four hours after administration (five hours after carrageenan), vehicle group 39.0±2.1%, n=8
Experimental: One single injection of carrageenan directly into the rat knee joint produces symptoms peaking at 3 to 4 hours and lasting for one to two days, and which are sensitive to treatment by most anti-nociceptive drugs (Tonussi and Ferreira, Pain 1992, 48, 421-427).
Under isoflurane anesthesia, 50 μL of carrageenan (7.5 mg/mL) was injected into the left tibio-tarsal (ankle) joint from the dorsal side. This injection causes a localized inflammation increasing to a maximum between 4 h to 8 h after induction, after which it gradually decreases, and the animals display decreased weight bearing on and guarding of the limb.
The Paw Print walkway consists of a 100×10 cm path with an access point at one short end and an exit at the other, and the rats are trained to make a swift, continuous passage. The walkway has a glass floor where light is projected into one long edge via fiber optics. Projecting the light in this fashion allows for virtually complete internal reflection within the glass floor. Only where an object touches the glass, such as the placement of a rat paw, light is scattered at the point of contact and produces an illuminated print (Betts, Duckworth, Eng. Med. 1978, 7, 223-228) that is recorded by a wide-angle camera placed under the walkway. The light intensity (range 0-255) of the illumination depends on the degree of contact against the floor and increases with the applied pressure (Clarke, Physiology & Behavior 1995, 58, 415-419). The Paw Print setup is a modified version of the CatWalk introduced by Hamers, Lankhorst, van Laar, Veldhuis, Gispen (J. Neurotrauma 2001, 18, 187-201), and has a computerized gait detection algorithm extracting several parameters pertaining to the rat's gait pattern and weight-bearing.
The animals were trained to cross the walkway twice, one and two days before induction of monoarthritis. Recordings were subsequently made on the day of testing, immediately before, and three and five hours after carrageenan injection, corresponding to two and four hours after per oral administration of test compound. The following parameters were used for analysis:
Weight-bearing per paw=The total sum of maximum light intensities for all pixels in the print of one paw is multiplied by the number of pixels of the print area. A paw placement consists of a number of pixels with light intensity above a certain threshold value (80 in this study). During the time course of one paw placement, a maximum value of light intensity is recorded for each pixel.
Based on the weight-bearing results, the Paw Print algorithm chooses the median print per paw in one walkway crossing. The median weight-bearing of each paw constitutes a percentage of the sum of all four paws' median weight-bearing results. The difference in percent weight-bearing between the two hind paws is shown (“Walking pain”).
The test compounds were administered 60 min after induction of monoarthritis.
Results were analysed using 1-Way ANOVA followed by Newman-Keuls for comparison between treatment groups for data obtained at each time-point after administration. The level of significance was set at p<0.05 (SigmaStat® 2.03).

human Trk A kinase = biological target: T1, human Trk A kinase (Homo sapiens, UniProt P04629); assay: Trk A kinase assay (Alphascreen); assay type: biochemical; conditions: human Trk A intracellular domain, 70 μM ATP, 20 minutes, room temperature; read-out: IC50 (Trk inhibitory activity)
T1 construct: HIS; made in house; host or cells: SF9 insect cells
T1 sequence (P04629 442-796): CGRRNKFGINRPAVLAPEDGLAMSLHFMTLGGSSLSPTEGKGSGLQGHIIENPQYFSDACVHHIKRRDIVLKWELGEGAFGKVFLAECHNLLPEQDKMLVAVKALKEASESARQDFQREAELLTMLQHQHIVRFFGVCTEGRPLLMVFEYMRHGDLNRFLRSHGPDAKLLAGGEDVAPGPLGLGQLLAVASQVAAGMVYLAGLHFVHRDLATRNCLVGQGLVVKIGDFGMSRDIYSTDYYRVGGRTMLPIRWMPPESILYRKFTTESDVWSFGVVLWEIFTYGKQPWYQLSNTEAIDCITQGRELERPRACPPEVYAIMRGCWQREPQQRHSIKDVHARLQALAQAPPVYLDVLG
Experimental: Trk A kinase activity was measured for its ability to phosphorylate synthetic tyrosine residues within a generic polypeptide substrate using an Amplified Luminescent Proximity Assay (Alphascreen) technology (PerkinElmer, 549 Albany Street, Boston, Mass.).
To measure Trk A kinase activity, the intracellular domain of a HIS-tagged human Trk A kinase (amino acids 442-796 of Trk A, Swiss-Prot Primary Accession Number P04629) was expressed in SF9 cells and purified using standard nickel column chromatography. After incubation of the kinase with a biotinylated substrate and adenosine triphosphate (ATP) for 20 minutes at room temperature, the kinase reaction was stopped by the addition of 30 mM ethylenediaminetetraacetic acid (EDTA). The reaction was performed in 384 well microtitre plates and the reaction products were detected with the addition of strepavidin coated Donor Beads and phosphotyrosine-specific antibodies coated Acceptor Beads using the EnVision Multilabel Plate Reader after an overnight incubation at room temperature.

SMILES: CC(C)Oc1cc(Nc2nc(N[C@@H](C)c3ccc(F)cn3)c(C#N)cc2F)n[nH]1 [(S)-5-Fluoro-2-(1-(5-fluoropyridin-2-yl)ethylamino)-6-(5-isopropoxy-1H-pyrazol-3-ylamino)nicotinonitrile]
- hindpaw weight distribution (difference in percent weight-bearing between the two hind paws), mean ±SEM ([1]; 50 μmol/kg per oral): 24.6±4.3%
- hindpaw weight distribution (difference in percent weight-bearing between the two hind paws), mean ±SEM ([1]; 100 μmol/kg per oral): 27.6±3.3%
- hindpaw weight distribution (difference in percent weight-bearing between the two hind paws), mean ±SEM ([1]; 200 μmol/kg per oral): 18.4±3.2%
- effect on hindpaw weight distribution vs vehicle (p<0.05) ([1]; four hours after per oral administration, all doses tested: 50, 100 and 200 μmol/kg): significantly reduced
- effect on hindpaw weight distribution vs vehicle (p<0.05) ([1]; two hours after per oral administration, 50, 100 and 200 μmol/kg): not at two hours

- IC50 (human Trk A kinase): 0.109 µM
SMILES: C[C@H](Nc1nc(Nc2cc(C3CC3)[nH]n2)c(F)cc1CNC(=O)C1CCC(=O)N1)c1ccc(F)cc1 (stereo partly drawn) [N-((6-(5-Cyclopropyl-1H-pyrazol-3-ylamino)-5-fluoro-2-((S)-1-(4-fluorophenyl)ethylamino)pyridin-3-yl)methyl)-5-oxopyrrolidine-2-carboxamide]

- IC50 (human Trk A kinase): 0.611 µM
SMILES: C[C@H](Nc1nc(Nc2cc(C3CC3)[nH]n2)c(Cl)cc1Cl)c1ccc(F)cc1 [(S)-3,5-Dichloro-N^2-(5-cyclopropyl-1H-pyrazol-3-yl)-N^6-(1-(4-fluoro-phenyl)ethyl)pyridine-2,6-diamine]

- IC50 (human Trk A kinase): 0.063 µM
SMILES: C[C@H](Nc1ccc([N+](=O)[O-])c(Nc2cc(C3CC3)[nH]n2)n1)c1ccc(F)cc1 [(S)-N^2-(5-Cyclopropyl-1H-pyrazol-3-yl)-N^6-(1-(4-fluorophenyl)ethyl)-3-nitropyridine-2,6-diamine]

Source: US20080108669A1, “Use 541” (AstraZeneca AB, priority 2006, published 2008)
